Assay results: the CheMixHub viscosity set
± gives the uncertainty stated by the source.

Experiment: xn = mol fraction of the nth substance listed

## CCCCCCCO + COC(=O)OC
293.15 K, 101 kPa, x2 = 0.04189
  viscosity: 6.005 mPa·s
293.15 K, 101 kPa, x2 = 0.08197
  viscosity: 5.163 mPa·s
293.15 K, 101 kPa, x2 = 0.1998
  viscosity: 3.52 mPa·s
293.15 K, 101 kPa, x2 = 0.2986
  viscosity: 2.615 mPa·s
293.15 K, 101 kPa, x2 = 0.4163
  viscosity: 1.928 mPa·s
293.15 K, 101 kPa, x2 = 0.482
  viscosity: 1.64 mPa·s
293.15 K, 101 kPa, x2 = 0.6031
  viscosity: 1.231 mPa·s
293.15 K, 101 kPa, x2 = 0.7204
  viscosity: 0.956 mPa·s
293.15 K, 101 kPa, x2 = 0.7985
  viscosity: 0.818 mPa·s
293.15 K, 101 kPa, x2 = 0.9076
  viscosity: 0.691 mPa·s
293.15 K, 101 kPa, x2 = 0.9573
  viscosity: 0.661 mPa·s
303.15 K, 100 kPa, x2 = 0.0999
  viscosity: 3.588 ± 0.11 mPa·s
303.15 K, 100 kPa, x2 = 0.2
  viscosity: 2.668 ± 0.082 mPa·s
303.15 K, 100 kPa, x2 = 0.3001
  viscosity: 2.033 ± 0.062 mPa·s
303.15 K, 100 kPa, x2 = 0.4
  viscosity: 1.59 ± 0.049 mPa·s
303.15 K, 100 kPa, x2 = 0.5001
  viscosity: 1.275 ± 0.039 mPa·s
303.15 K, 100 kPa, x2 = 0.6
  viscosity: 1.061 ± 0.033 mPa·s
303.15 K, 100 kPa, x2 = 0.7
  viscosity: 0.869 ± 0.027 mPa·s
303.15 K, 100 kPa, x2 = 0.8
  viscosity: 0.707 ± 0.022 mPa·s
303.15 K, 100 kPa, x2 = 0.8999
  viscosity: 0.609 ± 0.019 mPa·s
303.15 K, 101 kPa, x2 = 0.06371
  viscosity: 4.012 mPa·s
303.15 K, 101 kPa, x2 = 0.1014
  viscosity: 3.549 mPa·s
303.15 K, 101 kPa, x2 = 0.2001
  viscosity: 2.661 mPa·s
303.15 K, 101 kPa, x2 = 0.2928
  viscosity: 2.07 mPa·s
303.15 K, 101 kPa, x2 = 0.4019
  viscosity: 1.583 mPa·s
303.15 K, 101 kPa, x2 = 0.4949
  viscosity: 1.282 mPa·s
303.15 K, 101 kPa, x2 = 0.5788
  viscosity: 1.071 mPa·s
303.15 K, 101 kPa, x2 = 0.715
  viscosity: 0.817 mPa·s
303.15 K, 101 kPa, x2 = 0.7902
  viscosity: 0.719 mPa·s
303.15 K, 101 kPa, x2 = 0.9063
  viscosity: 0.607 mPa·s
303.15 K, 101 kPa, x2 = 0.9354
  viscosity: 0.584 mPa·s
308.15 K, 100 kPa, x2 = 0.0999
  viscosity: 3.119 ± 0.096 mPa·s
308.15 K, 100 kPa, x2 = 0.2
  viscosity: 2.351 ± 0.072 mPa·s
308.15 K, 100 kPa, x2 = 0.3001
  viscosity: 1.809 ± 0.056 mPa·s
308.15 K, 100 kPa, x2 = 0.4
  viscosity: 1.434 ± 0.044 mPa·s
308.15 K, 100 kPa, x2 = 0.5001
  viscosity: 1.149 ± 0.035 mPa·s
308.15 K, 100 kPa, x2 = 0.6
  viscosity: 0.964 ± 0.03 mPa·s
308.15 K, 100 kPa, x2 = 0.7
  viscosity: 0.789 ± 0.024 mPa·s
308.15 K, 100 kPa, x2 = 0.8
  viscosity: 0.66 ± 0.02 mPa·s
308.15 K, 100 kPa, x2 = 0.8999
  viscosity: 0.57 ± 0.018 mPa·s
313.15 K, 100 kPa, x2 = 0.0999
  viscosity: 2.725 ± 0.084 mPa·s
313.15 K, 100 kPa, x2 = 0.2
  viscosity: 2.077 ± 0.064 mPa·s
313.15 K, 100 kPa, x2 = 0.3001
  viscosity: 1.616 ± 0.05 mPa·s
313.15 K, 100 kPa, x2 = 0.4
  viscosity: 1.288 ± 0.04 mPa·s
313.15 K, 100 kPa, x2 = 0.5001
  viscosity: 1.049 ± 0.032 mPa·s
313.15 K, 100 kPa, x2 = 0.6
  viscosity: 0.875 ± 0.027 mPa·s
313.15 K, 100 kPa, x2 = 0.7
  viscosity: 0.73 ± 0.023 mPa·s
313.15 K, 100 kPa, x2 = 0.8
  viscosity: 0.612 ± 0.019 mPa·s
313.15 K, 100 kPa, x2 = 0.8999
  viscosity: 0.536 ± 0.017 mPa·s
313.15 K, 101 kPa, x2 = 0.04009
  viscosity: 3.253 mPa·s
313.15 K, 101 kPa, x2 = 0.09588
  viscosity: 2.743 mPa·s
313.15 K, 101 kPa, x2 = 0.2155
  viscosity: 1.974 mPa·s
313.15 K, 101 kPa, x2 = 0.3104
  viscosity: 1.571 mPa·s
313.15 K, 101 kPa, x2 = 0.4052
  viscosity: 1.267 mPa·s
313.15 K, 101 kPa, x2 = 0.4938
  viscosity: 1.054 mPa·s
313.15 K, 101 kPa, x2 = 0.5968
  viscosity: 0.859 mPa·s
313.15 K, 101 kPa, x2 = 0.7024
  viscosity: 0.709 mPa·s
313.15 K, 101 kPa, x2 = 0.7953
  viscosity: 0.613 mPa·s
313.15 K, 101 kPa, x2 = 0.9018
  viscosity: 0.535 mPa·s
313.15 K, 101 kPa, x2 = 0.9477
  viscosity: 0.509 mPa·s
318.15 K, 100 kPa, x2 = 0.0999
  viscosity: 2.392 ± 0.073 mPa·s
318.15 K, 100 kPa, x2 = 0.2
  viscosity: 1.847 ± 0.057 mPa·s
318.15 K, 100 kPa, x2 = 0.3001
  viscosity: 1.454 ± 0.045 mPa·s
318.15 K, 100 kPa, x2 = 0.4
  viscosity: 1.171 ± 0.036 mPa·s
318.15 K, 100 kPa, x2 = 0.5001
  viscosity: 0.961 ± 0.03 mPa·s
318.15 K, 100 kPa, x2 = 0.6
  viscosity: 0.809 ± 0.025 mPa·s
318.15 K, 100 kPa, x2 = 0.7
  viscosity: 0.683 ± 0.021 mPa·s
318.15 K, 100 kPa, x2 = 0.8
  viscosity: 0.573 ± 0.018 mPa·s
318.15 K, 100 kPa, x2 = 0.8999
  viscosity: 0.504 ± 0.016 mPa·s
323.15 K, 100 kPa, x2 = 0.0999
  viscosity: 2.113 ± 0.065 mPa·s
323.15 K, 100 kPa, x2 = 0.2
  viscosity: 1.651 ± 0.051 mPa·s
323.15 K, 100 kPa, x2 = 0.3001
  viscosity: 1.31 ± 0.04 mPa·s
323.15 K, 100 kPa, x2 = 0.4
  viscosity: 1.068 ± 0.033 mPa·s
323.15 K, 100 kPa, x2 = 0.5001
  viscosity: 0.885 ± 0.027 mPa·s
323.15 K, 100 kPa, x2 = 0.6
  viscosity: 0.738 ± 0.023 mPa·s
323.15 K, 100 kPa, x2 = 0.7
  viscosity: 0.638 ± 0.02 mPa·s
323.15 K, 100 kPa, x2 = 0.8
  viscosity: 0.539 ± 0.017 mPa·s
323.15 K, 100 kPa, x2 = 0.8999
  viscosity: 0.476 ± 0.015 mPa·s

## CS(C)=O + CO
298.15 K, 101 kPa, x1 = 0.2
  viscosity: 0.705 ± 0.012 mPa·s
298.15 K, 101 kPa, x1 = 0.4
  viscosity: 0.942 ± 0.016 mPa·s
298.15 K, 101 kPa, x1 = 0.6
  viscosity: 1.212 ± 0.021 mPa·s
298.15 K, 101 kPa, x1 = 0.8
  viscosity: 1.581 ± 0.026 mPa·s
298.15 K, 101.3 kPa, x1 = 0.0439
  viscosity: 0.583 ± 0.031 mPa·s
298.15 K, 101.3 kPa, x1 = 0.093
  viscosity: 0.616 ± 0.033 mPa·s
298.15 K, 101.3 kPa, x1 = 0.1279
  viscosity: 0.642 ± 0.034 mPa·s
298.15 K, 101.3 kPa, x1 = 0.2139
  viscosity: 0.708 ± 0.037 mPa·s
298.15 K, 101.3 kPa, x1 = 0.2908
  viscosity: 0.792 ± 0.04 mPa·s
298.15 K, 101.3 kPa, x1 = 0.3809
  viscosity: 0.884 ± 0.044 mPa·s
298.15 K, 101.3 kPa, x1 = 0.4902
  viscosity: 1.03 ± 0.051 mPa·s
298.15 K, 101.3 kPa, x1 = 0.6224
  viscosity: 1.259 ± 0.06 mPa·s
298.15 K, 101.3 kPa, x1 = 0.7858
  viscosity: 1.564 ± 0.073 mPa·s
298.15 K, 101.3 kPa, x1 = 0.8923
  viscosity: 1.768 ± 0.082 mPa·s
298.15 K, 101.3 kPa, x1 = 0.9667
  viscosity: 1.923 ± 0.089 mPa·s
298.15 K, 101.31 kPa, x1 = 0.1531
  viscosity: 0.66 ± 0.017 mPa·s
298.15 K, 101.31 kPa, x1 = 0.1961
  viscosity: 0.695 ± 0.018 mPa·s
298.15 K, 101.31 kPa, x1 = 0.2939
  viscosity: 0.792 ± 0.021 mPa·s
298.15 K, 101.31 kPa, x1 = 0.4044
  viscosity: 0.917 ± 0.024 mPa·s
298.15 K, 101.31 kPa, x1 = 0.533
  viscosity: 1.064 ± 0.028 mPa·s
298.15 K, 101.31 kPa, x1 = 0.6303
  viscosity: 1.201 ± 0.031 mPa·s
298.15 K, 101.31 kPa, x1 = 0.7167
  viscosity: 1.379 ± 0.036 mPa·s
298.15 K, 101.31 kPa, x1 = 0.817
  viscosity: 1.586 ± 0.041 mPa·s
298.15 K, 101.31 kPa, x1 = 0.8886
  viscosity: 1.737 ± 0.045 mPa·s
299 K, 101 kPa, x1 = 0.0375
  viscosity: 0.9137 mPa·s
299 K, 101 kPa, x1 = 0.119
  viscosity: 1.048 mPa·s
299 K, 101 kPa, x1 = 0.2599
  viscosity: 1.264 mPa·s
299 K, 101 kPa, x1 = 0.3691
  viscosity: 1.384 mPa·s
299 K, 101 kPa, x1 = 0.4937
  viscosity: 1.964 mPa·s
299 K, 101 kPa, x1 = 0.7172
  viscosity: 2.348 mPa·s
303.15 K, 101.3 kPa, x1 = 0.0439
  viscosity: 0.544 ± 0.03 mPa·s
303.15 K, 101.3 kPa, x1 = 0.093
  viscosity: 0.566 ± 0.031 mPa·s
303.15 K, 101.3 kPa, x1 = 0.1279
  viscosity: 0.583 ± 0.031 mPa·s
303.15 K, 101.3 kPa, x1 = 0.2139
  viscosity: 0.661 ± 0.035 mPa·s
303.15 K, 101.3 kPa, x1 = 0.2908
  viscosity: 0.741 ± 0.038 mPa·s
303.15 K, 101.3 kPa, x1 = 0.3809
  viscosity: 0.82 ± 0.042 mPa·s
303.15 K, 101.3 kPa, x1 = 0.4902
  viscosity: 0.937 ± 0.047 mPa·s
303.15 K, 101.3 kPa, x1 = 0.6224
  viscosity: 1.11 ± 0.054 mPa·s
303.15 K, 101.3 kPa, x1 = 0.7858
  viscosity: 1.368 ± 0.065 mPa·s
303.15 K, 101.3 kPa, x1 = 0.8923
  viscosity: 1.573 ± 0.074 mPa·s
303.15 K, 101.3 kPa, x1 = 0.9667
  viscosity: 1.713 ± 0.08 mPa·s
308.15 K, 101.31 kPa, x1 = 0.1531
  viscosity: 0.581 ± 0.015 mPa·s
308.15 K, 101.31 kPa, x1 = 0.1961
  viscosity: 0.612 ± 0.016 mPa·s
308.15 K, 101.31 kPa, x1 = 0.2939
  viscosity: 0.694 ± 0.018 mPa·s
308.15 K, 101.31 kPa, x1 = 0.4044
  viscosity: 0.798 ± 0.021 mPa·s
308.15 K, 101.31 kPa, x1 = 0.533
  viscosity: 0.92 ± 0.024 mPa·s
308.15 K, 101.31 kPa, x1 = 0.6303
  viscosity: 1.03 ± 0.027 mPa·s
308.15 K, 101.31 kPa, x1 = 0.817
  viscosity: 1.336 ± 0.035 mPa·s
308.15 K, 101.31 kPa, x1 = 0.8886
  viscosity: 1.454 ± 0.038 mPa·s
318.15 K, 101.31 kPa, x1 = 0.1531
  viscosity: 0.514 ± 0.013 mPa·s
318.15 K, 101.31 kPa, x1 = 0.1961
  viscosity: 0.544 ± 0.014 mPa·s
318.15 K, 101.31 kPa, x1 = 0.2939
  viscosity: 0.613 ± 0.016 mPa·s
318.15 K, 101.31 kPa, x1 = 0.533
  viscosity: 0.804 ± 0.021 mPa·s
318.15 K, 101.31 kPa, x1 = 0.6303
  viscosity: 0.894 ± 0.023 mPa·s
318.15 K, 101.31 kPa, x1 = 0.817
  viscosity: 1.141 ± 0.03 mPa·s
318.15 K, 101.31 kPa, x1 = 0.8886
  viscosity: 1.194 ± 0.031 mPa·s
